Legend:
[1] = tested on: Salmonellae; test: Salmonellae log reduction in frozen pot pie filling containing 4-HBITC cooked in a microwave oven (plate count); assay type: cell-based; parameters: key to Synergistic effect Yes/No: Yes: reduction in microbial counts due to the simultaneous action of 4-HBITC and microwave heating is greater than the sum of the individual reductions in microbial counts due to 4-HBITC and microwave heating, a synergistic effect is considered to be present (YES); No: reduction in microbial counts due to the simultaneous action of 4-HBITC and microwave heating is equal to or less than the sum of the individual reductions in microbial counts due to 4-HBITC and due to microwave heating, a synergistic effect is considered to be absent (NO); conditions: for Synergistic effect Yes/No: 180 sec
Excerpt: (§1) Pot pie fillings made up of both Salmonellae inoculated particulates and gravy carrying the 4-hydroxybenzyl isothiocyanate (4-HBITC) in white mustard essential oil (WMEO), is used to evaluate the effect of 4-HBITC in a heterogeneous food system. Standing overnight cultures of five strains of Salmonellae are used to inoculate, at two different levels, mixtures of frozen vegetable and chicken particulates containing about 62% chicken, 17% carrot, 15% potato and 2% peas, as described in Example 2, all by weight of the total particulate mixture. The high level contains about 6 log colony forming units (cfu)/gm while the medium level contains about 3 log cfu/gm of Salmonellae. Bags containing the inoculated cultures and the particulates are gently inverted and rolled to ensure uniform coating of the particulates and the inoculated particles are then stored at −28° C. for 24 hours before being mixed with sauce containing white mustard essential oil (WMEO).
(§2) Sauce as made in Example 2 is used as the vehicle for WMEO. From a 2.4% 4-HBITC in WMEO stock solution in peanut oil made as described in Example 1, accurate amounts are weighed out such that 400 g of the pie filling comprising 36% of the particulates and 64% of the gravy will have 750, 562.5 or 250 ppm, 4-HBITC when mixed together. The particulates and the sauce are first put together in a sterile bowl and the WMEO in peanut oil added to the mixture and mixed gently for about 1 minute. The control (0 ppm 4-HBITC samples have only the vegetable oil added to them before mixing. The completed pie fillings are then immediately frozen at −28° C. for 48 hours before the second stage of the experiment.
(§3) To enumerate the accurate Salmonellae count prior to freezing, a sample is removed from each of the mixed pie fillings, including the control, and diluted at a ratio of 1:10 with Butterfields buffer and homogenized using a stomacher. The homogenized and diluted sample is suitably diluted further to obtain the appropriate number of bacterial colonies per plate and plated in triplicate on trypticase soy agar with yeast extract and allowed to stabilize for 30-60 minutes. The plates are then over-laid with xyline-lysine-deoxycholate (XLD) agar to resuscitate and recover injured cells and incubated at 35° C. for 48 hours before counting the colonies.
(§4) In the second stage of the experiment, the frozen pie fillings are cooked in 700 W or 1100 W microwave ovens. During cooking, samples are removed from the pie fillings at 15, 45, 60, 90 120, 180 and 240 seconds. At each of these time points, the surviving microbial counts are enumerated by removing discrete 25 g samples and plating them in the manner described above. To determine the effect of 4-HBITC only, each of the treatments and the control is thawed to room temperature and triplicate samples are used to enumerate the surviving microorganisms as detailed above.
(§5) The microbial reductions resulting from the treatments is attributed to the simultaneous action of microwave heating and 4-HBITC while microbial reductions occurring in the 0 ppm 4-HBITC containing control sample is attributed to microwave heating only. If the reduction in microbial counts due to the simultaneous action of 4-HBITC and microwave heating is greater than the sum of the individual reductions in microbial counts due to 4-HBITC and microwave heating, a synergistic effect is considered to be present (YES). If the reduction in microbial counts due to the simultaneous action of 4-HBITC and microwave heating is equal to or less than the sum of the individual reductions in microbial counts due to 4-HBITC and due to microwave heating, a synergistic effect is considered to be absent (NO).

[2] = tested on: Salmonellae; test: Salmonellae log reduction in pot pie filling by 4-HBITC only (frozen filling thawed to room temperature, plate count); assay type: cell-based
Excerpt: as §1, §2, §3, §4, §5

[3] = 250 ppm 4-HBITC, inoc. level H, MW power 700 Watts
[4] = 250 ppm 4-HBITC, inoc. level H, MW power 1100 Watts
[5] = 250 ppm 4-HBITC, inoc. level M, MW power 700 Watts
[6] = 250 ppm 4-HBITC, inoc. level M, MW power 1100 Watts
[7] = 562.5 ppm 4-HBITC, inoc. level H, MW power 700 Watts
[8] = 562.5 ppm 4-HBITC, inoc. level H, MW power 1100 Watts
[9] = 562.5 ppm 4-HBITC, inoc. level M, MW power 700 Watts
[10] = 562.5 ppm 4-HBITC, inoc. level M, MW power 1100 Watts
[11] = 750 ppm 4-HBITC, inoc. level H, MW power 700 Watts
[12] = 750 ppm 4-HBITC, inoc. level H, MW power 1100 Watts
[13] = 750 ppm 4-HBITC, inoc. level M, MW power 700 Watts
[14] = 750 ppm 4-HBITC, inoc. level M, MW power 1100 Watts

Oc1ccc(CN=C=S)cc1 [4-HBITC, 4-hydroxybenzyl isothiocyanate]
log reductions (180 sec) due to Simultaneous action of 4-HBITC & heat [1, 3]: 1.11 log
Synergistic effect Yes/No [1, 3]: No
log reductions (180 sec) due to Simultaneous action of 4-HBITC & heat [1, 4]: 1.63 log
Synergistic effect Yes/No [1, 4]: Yes
log reductions (180 sec) due to Simultaneous action of 4-HBITC & heat [1, 5]: 1.42 log
Synergistic effect Yes/No [1, 5]: No
log reductions (180 sec) due to Simultaneous action of 4-HBITC & heat [1, 6]: 1.38 log
Synergistic effect Yes/No [1, 6]: No
log reductions (180 sec) due to Simultaneous action of 4-HBITC & heat [1, 7]: 2.97 log
Synergistic effect Yes/No [1, 7]: Yes
log reductions (180 sec) due to Simultaneous action of 4-HBITC & heat [1, 8]: 5.25 log
Synergistic effect Yes/No [1, 8]: Yes
log reductions (180 sec) due to Simultaneous action of 4-HBITC & heat [1, 9]: 4.38 log
Synergistic effect Yes/No [1, 9]: Yes
log reductions (180 sec) due to Simultaneous action of 4-HBITC & heat [1, 10]: 4.38 log
Synergistic effect Yes/No [1, 10]: Yes
log reductions (180 sec) due to Simultaneous action of 4-HBITC & heat [1, 11]: 5.25 log
Synergistic effect Yes/No [1, 11]: Yes
log reductions (180 sec) due to Simultaneous action of 4-HBITC & heat [1, 12]: 1.56 log
Synergistic effect Yes/No [1, 12]: No
log reductions (180 sec) due to Simultaneous action of 4-HBITC & heat [1, 13]: 4.38 log
Synergistic effect Yes/No [1, 13]: Yes
log reductions (180 sec) due to Simultaneous action of 4-HBITC & heat [1, 14]: 4.38 log
Synergistic effect Yes/No [1, 14]: Yes
log reductions (180 sec) due to 4-HBITC only [2, 3]: 0.74 log
log reductions (180 sec) due to 4-HBITC only [2, 4]: 1.05 log
log reductions (180 sec) due to 4-HBITC only [2, 5]: 1.15 log
log reductions (180 sec) due to 4-HBITC only [2, 6]: 1.1 log
log reductions (180 sec) due to 4-HBITC only [2, 7]: 1.59 log
log reductions (180 sec) due to 4-HBITC only [2, 8]: 1.59 log
log reductions (180 sec) due to 4-HBITC only [2, 9]: 2.4 log
log reductions (180 sec) due to 4-HBITC only [2, 10]: 2.4 log
log reductions (180 sec) due to 4-HBITC only [2, 11]: 2.03 log
log reductions (180 sec) due to 4-HBITC only [2, 12]: 2.14 log
log reductions (180 sec) due to 4-HBITC only [2, 13]: 2.4 log
log reductions (180 sec) due to 4-HBITC only [2, 14]: 2.64 log
